In patent publication US12655139B2, “Isoxazolidines as RIPK1 inhibitors and use thereof” (SANOFI, priority 2020, dated 2026):
pIC50: −log10 of the molar value. Where a name gives a salt, the structure may show the parent alone. Read-outs that look alike come from different tables or passages of the source.

Test system: U937 cells
Assay: Cellular assay in U937 cells on cell death (necroptosis), TNFα/zVAD.fmk
Type: cell-based
Conditions: Homo sapiens; for pIC50: U-937, Table 2, read-out: U937 IC50
Text: Cellular Assay in U937 Cells to Measure the Activity of RIPK1-Inhibitors on Cell Death (Necroptosis).
Cell death was quantified in 96 well plates by determination of the amount of live cell using a CellTiter 96 AQueous reagent (Promega), a calorimetric method to measure the amount of live cells by reducing tetrazolium compound [3-(4,5-dimethylthiazol-2-yl)-5-(3-carboxymethoxyphenyl)-2-(4-sulfophenyl)-2H-tetrazolium, inner salt; MTS] into formazan. Absorbance of formazan was read at 490 nm. The inhibitory activity of the test compound was quantified in a concentration response curve (CRC) experiment. Compounds were obtained as 10 mM stock solutions and were diluted 1 to 10 volumes with DMSO to yield a 1 mM solution. From this solution 2 μl were diluted with 998 μl growth medium. 100 μl of 2 μM compound solution was further diluted sequentially with a dilution factor of 2.5 by adding 150 μl growth medium. A total of 10 concentrations were tested ranging from 10 μM to 0.26 nM or from 1 μM to 0.07 nM.
U937 cells were cultured in RPMI1640 Glutamax and 10% heat inactivated FBS. 50 μl cell suspension containing 1×10^6 cells/ml supplemented with 50 μM zVAD.fmk (Benzyloxycarbonyl-Val-Ala-Asp (OMe) fluoromethylketone) and 100 ng/ml recombinant human TNFα were dispensed in each well of a 96-well plate. 50 μl of compound dilutions (see above) were added and the cell suspension incubated overnight (18 to 24 hours) at 37° C., 5% CO2 in a humidified atmosphere (95% rH). High (no compound) and low control (no TNFα, zVAD.fmk) were tested with 7 replicates; all compound concentrations were tested in duplicates on each experimental plate.
CellTiter 96 Aqueous reagent was mixed (100 μl PMS (phenazine methosulfate) solution/2 ml MTS (3-(4,5-[…])-5-(3-carboxymethoxyphenyl)-2-(4-sulfophenyl)-2H-tetrazolium, inner salt) solution) and 20 μl were added per well. After 4 hours incubation at 37° C. (5% CO2 95% rH) optical density was measured at 490 nm on a microplate reader (Tecan Infinite M1000).
The % inhibition is expressed as percentage of the maximal inhibition value obtained in the absence of TNFα/zVAD.fmc.

| SMILES | pIC50 | IC50 (U-937, Comparator table 5, read-out: U937 IC50 (uM) Mean) [µM] |
| --- | --- | --- |
| NC(=O)c1ccnc(N2CCC(C(=O)N3OCC[C@H]3c3cncc(N4CCCC4=O)c3)CC2)n1 [Ex. 060] | 5.14 | – |
| N#Cc1cncc([C@@H]2CCON2C(=O)C2CCN(c3nccc(Br)n3)CC2)c1 [Ex. 161] | 7.70 | – |
| N#Cc1cncc([C@@H]2CCON2C(=O)C2CCN(c3nccc(C(=O)NC4CNC4)n3)CC2)c1 [Ex. 086, N-(Azetidin-3-yl)-2-[4-[(3S)-3-(5-cyano-3-pyridyl)isoxazolidine-2-carbonyl]-1-piperidyl]pyrimidine-4-carboxamide TFA salt] | 5.06 | – |
| N#Cc1cncc([C@@H]2CCON2C(=O)C2CCN(c3ncc(F)c(O)n3)CC2)c1 [compound 125, 5-[(3S)-2-[1-(5-fluoro-4-hydroxy-pyrimidin-2-yl)piperidine-4-carbonyl]isoxazolidin-3-yl]pyridine-3-carbonitrile] | 5.06 | – |
| Cn1ccc(C2CCON2C(=O)C2CCN(c3cc(C#N)ncn3)CC2)n1 (racemic) [Example 006, 6-[4-[3-(1-methylpyrazol-3-yl)isoxazolidine-2-carbonyl]-1-piperidyl]pyrimidine 4-carbonitrile] | 5.25 | – |
| N#Cc1cncc([C@@H]2CCON2C(=O)C2CCN(c3cc(C#N)ccn3)CC2)c1 [Ex. 017] | 6.46 | – |
| Cc1cncc([C@@H]2CCON2C(=O)C2CCN(c3ncc(F)c(C(N)=O)n3)CC2)n1 [Ex. 082] | 8.49 | – |
| CNC(=O)c1cncc(C2CCON2C(=O)C2CCN(c3nccc(C(N)=O)n3)CC2)c1 (racemic) [Ex. 040*] | < 5.00 | – |
| Cc1nnc(C2CCON2C(=O)C2CCN(c3nccc(C(N)=O)n3)CC2)s1 (racemic) [Ex. 089*] | 5.67 | – |
| COc1nc(N2CCC(C(=O)N3OCC[C@H]3c3ccc(C#N)cn3)CC2)ncc1F [compound 117] | 7.16 | – |
| Cc1ccc([C@@H]2CCON2C(=O)C2CCN(c3ncc(F)c(C(N)=O)n3)CC2)s1 [compound 183, 5-fluoro-2-[4-[(3S)-3-(5-methyl-2-thienyl)isoxazolidine-2-carbonyl]-1-piperidyl]pyrimidine-4-carboxamide] | 9.17 | – |
| CCN1CCC(CNC(=O)c2ccnc(N3CCC(C(=O)N4OCC[C@H]4c4cncc(C#N)c4)CC3)n2)CC1 [Ex. 079] | 5.78 | – |
| N#Cc1cncc([C@@H]2CCON2C(=O)C2CCN(c3cc(C#N)ncn3)CC2)c1 [Ex. 005] | 6.94 | – |
| N#Cc1cncc([C@@H]2CCON2C(=O)C2CCN(c3ccnc(N)n3)CC2)c1 [compound 148, 5-[(3S)-2-[1-(2-aminopyrimidin-4-yl)piperidine-4-carbonyl]isoxazolidin-3-yl]pyridine-3-carbonitrile] | 5.66 | – |
| NC(=O)c1ccnc(N2CCC(C(=O)N3OCCC3c3ccc(O)nc3)CC2)n1 (stereo not drawn) [Ex. 022] | < 5.00 | – |
| NC(=O)c1ccnc(N2CCC(C(=O)N3OCCC3c3ccc4nccn4c3)CC2)n1 (racemic) [Ex. 012*] | 5.14 | – |
| NC(=O)c1ccnc(N2CCC(C(=O)N3OCC[C@H]3c3cc(F)cc(F)c3)CC2)n1 [E, reference compound] | – | 0.002 |
| COc1nc(Cl)nc(N2CCC(C(=O)N3OCC[C@H]3c3cnccn3)CC2)n1 [compound 181, [1-(4-chloro-6-methoxy-1,3,5-triazin-2-yl)-4-piperidyl]-[(3S)-3-pyrazin-2-ylisoxazolidin-2-yl]methanone] | 7.52 | – |
| N#Cc1cncc([C@@H]2CCON2C(=O)C2CCN(c3nccc(C(N)=O)n3)CC2)n1 [Ex. 118] | 8.12 | – |
| Cc1ccc([C@@H]2CCON2C(=O)C2CCN(c3cc(C(N)=O)ncn3)CC2)cn1 [compound 135, (S)-6-(4-(3-(6-methylpyridin-3-yl)isoxazolidine-2-carbonyl)piperidin-1-yl)pyrimidine-4-carboxamide] | 6.31 | – |
| Cc1ncc([C@@H]2CCON2C(=O)C2CCN(c3nccc(C#N)n3)CC2)cc1F [compound 136, (S)-2-(4-(3-(5-fluoro-6-methylpyridin-3-yl)isoxazolidine-2-carbonyl)piperidin-1-yl)pyrimidine-4-carbonitrile] | 7.69 | – |
